“Also recorded” adds a separate entry of the source. Where a SMILES comes first, the peptide text is derived from it. The star is where a group is joined. Cbz = O=C(OCc1ccccc1)*; CH2F = FC*

Common to all, as to format: cell-based, human
One assay relates to SK-N-SH cells. The assay is described as follows: Caspase-8 inhibition, apoptosis by Annexin V-PE/7-AAD. The following applies: 40 μM and 80 μM for two days. The method, then:
FIG. 6. Down modulation of KIAA0358 or selective expression of IG20-SV4 enhances apoptosis through expression/activation of caspase-8 in SK-N-SH cells. (A) Effects of cycloheximide on expression/activation of caspase-8. Three days post-transduction with shRNA-expressing virus, SK-N-SH cells were treated with 10 μg/ml cycloheximde (a protein synthesis inhibitor) for two days. Whole cell lysates were subjected to western blot analysis. (B) Caspase-8 reporter assay. SK-N-SH cells were cotransfected with pGL4.17-caspase-8 promoter vector, pSV40-Renilla luciferase vector and pEYFP-C1/or pEYFP-IG20-SV4 using Lipofectamine2000, 48 hrs later, cells were collected and analyzed for luciferase activity with the Dual-Luciferase Reporter Assay System (Promega). (C) and (D) Effects of caspase-8 inhibition. Three days post-transduction with shRNA-expressing virus, SK-N-SH cells were treated with 40 μM and 80 μM of Z-1ETD-FMK (a caspase 8 inhibitor) for two days. Collected cells were either subjected to Annexin V-PE/7-AAD stain for FACS analysis (C) or western blot analysis (D). (C) Percentage apoptosis in cells transduced with different shRNAs in the presence or absence of the caspase inhibitor. The P-value was **P<0.01 for Z-IETD-FMK treated vs untreated. […] Representative data are from three independent experiments.
Caspase-8 inhibition. […]

Assay [1] relates to caspase-8. In words: Caspase-8 inhibition, western blot. Conditions: SK-N-SH cells, 40 μM and 80 μM. As for the experimental part: (§1) FIG. 6. Down modulation of KIAA0358 or selective expression of IG20-SV4 enhances apoptosis through expression/activation of caspase-8 in SK-N-SH cells. (A) Effects of cycloheximide on expression/activation of caspase-8. Three days post-transduction with shRNA-expressing virus, SK-N-SH cells were treated with 10 μg/ml cycloheximde (a protein synthesis inhibitor) for two days. Whole cell lysates were subjected to western blot analysis. (B) Caspase-8 reporter assay. SK-N-SH cells were cotransfected with pGL4.17-caspase-8 promoter vector, pSV40-Renilla luciferase vector and pEYFP-C1/or pEYFP-IG20-SV4 using Lipofectamine2000, 48 hrs later, cells were collected and analyzed for luciferase activity with the Dual-Luciferase Reporter Assay System (Promega). (C) and (D) Effects of caspase-8 inhibition. Three days post-transduction with shRNA-expressing virus, SK-N-SH cells were treated with 40 μM and 80 μM of Z-1ETD-FMK (a caspase 8 inhibitor) for two days. […]
(§2) Western Blot Analysis. […] The protein content was determined using a dye-binding microassay (Bio-Rad), and after boiling the samples for 2 min in a 1× SDS protein sample buffer, 20 μg of protein per lane was loaded and separated on 10% SDS-polyacrylamide gel. […] Proteins were detected using an enhanced chemiluminescence plus western blotting detection system (Amersham, UK). […]
Background: Immunoblotting shows a protein as a band on a membrane.

The subject of assay [2] is caspase-8. In words: Cycloheximide treatment of transduced SK-N-SH cells, western blot of caspase-8. The following applies: 10 μg/mL cycloheximide. The method, then: as §1, with “(Promega).” for “(Promega). (C) and (D) Effects of caspase-8 inhibition. Three days post-transduction with shRNA-expressing virus, SK-N-SH cells were treated with 40 μM and 80 μM of Z-1ETD-FMK (a caspase 8 inhibitor) for two days.”
To determine whether the increased apoptosis induced utilizing 34+13L shRNA was due to modulation of the expression of caspase-8, the expression of caspase-8 transcripts was measured in SK-N-SH cells treated with the different combinations of siRNAs. […]
as §2

As to `CC[C@H](C)[C@H](NC(=O)OCc1ccccc1)C(=O)N[C@@H](CCC(=O)OC)C(=O)N[C@H](C(=O)N[C@@H](CC(=O)OC)C(=O)CF)[C@@H](C)O` [Z-IETD-FMK] (Cbz-IE(OMe)TD(OMe)-CH2F), in the assay with SK-N-SH cells, the “apoptosis in cells treated with shRNA targeting 34E” value was “did not significantly affect apoptosis” and the “apoptotic effect caused by down-modulation of KIAA0358” value is on record as “significantly attenuated the apoptotic effect”. Besides, the “effect on caspase-8 expression (western blot)” value in the assay on caspase-8 [1] was “inhibitory effect”.

Turning to `C[C@@H]1C[C@@H]([C@H](O)CC2CC(=O)NC(=O)C2)C(=O)[C@@H](C)C1` [cycloheximide], in the assay with caspase-8 [2], the “expression of caspase-8 protein” value is “inhibited the expression of caspase-8 protein; also recorded: the induced caspase-8 was inhibited”.

For the origin of these results see US20110117627A1, “REGULATION OF APOPTOSIS BY NEURAL SPECIFIC SPLICE VARIANTS OF IG20” (The Board of Trustees of the University of Illinois, priority 2008, published 2011).
